Read-outs that look alike come from different tables or passages of the source.
Tests used:
mu opioid receptor = target: T1, mu opioid receptor (Rattus norvegicus, UniProt P33535); assay: Rat brain mu opioid receptor binding assay; details: rat forebrain membranes, [3H]DAMGO, 25° C., 2.5 h
T1 construct: the forebrains were homogenized in Tris buffer in a Teflon®-glass homogenizer; from tissue; host or cells: forebrain of male Wistar rats (particulate membrane preparation)
Description: Rat Brain Mu Opioid Receptor Binding Assay
(§1) Procedure: Male, Wistar rats (150-250 g, VAF, Charles River, Kingston, N.Y.) were killed by CO2, and their brains removed and placed immediately in ice cold Tris HCl buffer (50 mM, pH 7.4). The forebrains were separated from the remainder of the brain by a coronal transection, beginning dorsally at the colliculi and passing ventrally through the midbrain-pontine junction. After dissection, the forebrains were homogenized in Tris buffer in a Teflon®-glass homogenizer. The homogenate was diluted to a concentration of 1 g of forebrain tissue per 80 mL Tris and centrifuged at 39,000×g for 10 min. The pellet was resuspended in the same volume of Tris buffer containing 5 mM MgCl2 with several brief pulses from a Polytron homogenizer. This particulate preparation was used for the delta opioid binding assays.
(§2) Analysis: The data from the scintillation counter were used to calculate either the % inhibition compared to control binding (when only a single concentration of test compound was evaluated) or a Ki value (when a range of concentrations tested). Percent inhibition was calculated as: [(total dpm−test compound dpm)/(total dpm−nonspecific dpm)]*100. Kd and Ki values were calculated using GraphPad PRISM data analysis program.

delta opioid receptor = target: T2, delta opioid receptor (Rattus norvegicus, UniProt P33533); assay: Rat brain delta opioid receptor binding assay; details: rat forebrain membranes, [3H]DPDPE or [3H]naltrindole, 25° C., 2.5 h
T2 construct: the forebrains were homogenized in Tris buffer in a Teflon®-glass homogenizer; from tissue; host or cells: forebrain of male Wistar rats (particulate membrane preparation)
Description: Rat Brain Delta Opioid Receptor Binding Assay
as §1
as §2, with “concentrations was” for “concentrations”

[1] = target: T3, delta opioid receptor (NG108-15 cell membranes) (Mus musculus, UniProt P32300); assay: [35S]GTPγS binding assay in NG108-15 cell membranes (delta opioid); format: biochemical; details: delta GTPγS binding EC50 (nM)
T3 construct: NG108-15 cell membranes were purchased from Applied Cell Sciences (Rockville, Md.); host or cells: NG108-15 cell membranes (purchased)
Description: Functional Assay: [^35S]GTPγS Binding Assay in NG108-15 Cell Membranes (Delta Opioid)
Methods: NG108-15 cell membranes were purchased from Applied Cell Sciences (Rockville, Md.). A sample (8 mg/mL) of membrane protein suspended in 10 mM TRIS-HCl pH 7.2, 2 mM EDTA, 10% sucrose. Membranes were maintained at 4-8° C. A 1 mL volume of membranes was added into 10 mL cold binding assay buffer. The assay buffer contained 50 mM Tris, pH 7.6, 5 mM MgCl2, 100 mM NaCl, 1 mM DTT and 1 mM EGTA. The membrane suspension was homogenized twice with a Polytron, and centrifuged at 3000 rpm for 10 min. The supernatant was then centrifuged at 18,000 rpm for 20 min. Ten mL assay buffer was added into the pellet containing tube. The pellet and buffer were mixed with a Polytron.
Incubation procedure: The pellet membranes (75 μg/mL) were preincubated with SPA (10 mg/mL) at 25° C. for 45 min in the assay buffer. The SPA (5 mg/mL) coupled with membranes (37.5 μg/mL) was then incubated with 0.1 nM [^35S]GTPγS in the same Tris buffer containing 100 μM GDP in total volume of 200 μL. Increasing concentrations of receptor agonists were used to stimulate [^35S]-GTPγS binding. The basal binding was tested in the absence of agonists and non-specific binding was tested in the presence of 10 μM unlabeled GTPγS. The data were analyzed on a Packard Top Count.
% of Basal=(stimulated−non specific)*100/(basal−non specific).
EC50 values were calculated using GraphPad Prism.

[2] = rMOR (Ki, nM): Rat mu opioid receptor binding constant
[3] = rDOR (Ki, nM): Rat delta opioid receptor binding constant
[4] = read-out: rMOR (Ki, nM): Rat mu opioid receptor binding constant
[5] = read-out: rDOR (Ki, nM): Rat delta opioid receptor binding constant

T2 sequence (P33533 whole entry): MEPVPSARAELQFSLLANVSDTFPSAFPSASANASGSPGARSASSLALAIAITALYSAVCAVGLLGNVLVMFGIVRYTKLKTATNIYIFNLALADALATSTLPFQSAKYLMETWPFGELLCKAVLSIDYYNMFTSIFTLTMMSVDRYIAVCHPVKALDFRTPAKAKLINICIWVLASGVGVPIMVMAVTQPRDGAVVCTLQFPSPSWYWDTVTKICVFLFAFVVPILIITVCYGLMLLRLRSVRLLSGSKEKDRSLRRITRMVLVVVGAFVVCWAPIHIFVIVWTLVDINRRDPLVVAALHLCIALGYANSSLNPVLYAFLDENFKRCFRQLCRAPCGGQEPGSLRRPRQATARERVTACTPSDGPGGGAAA
T1 sequence (P33535 whole entry): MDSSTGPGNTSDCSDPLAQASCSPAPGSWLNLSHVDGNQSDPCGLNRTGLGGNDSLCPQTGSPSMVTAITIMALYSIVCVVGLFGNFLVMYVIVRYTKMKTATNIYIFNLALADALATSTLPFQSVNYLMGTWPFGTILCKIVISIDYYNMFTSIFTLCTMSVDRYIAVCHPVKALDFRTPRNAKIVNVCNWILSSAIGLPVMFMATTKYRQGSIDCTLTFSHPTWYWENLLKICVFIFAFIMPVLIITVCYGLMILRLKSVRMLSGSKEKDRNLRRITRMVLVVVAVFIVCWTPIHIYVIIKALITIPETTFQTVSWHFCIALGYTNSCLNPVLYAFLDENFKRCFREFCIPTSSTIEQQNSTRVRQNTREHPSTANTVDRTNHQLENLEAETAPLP
T3 sequence (P32300 whole entry): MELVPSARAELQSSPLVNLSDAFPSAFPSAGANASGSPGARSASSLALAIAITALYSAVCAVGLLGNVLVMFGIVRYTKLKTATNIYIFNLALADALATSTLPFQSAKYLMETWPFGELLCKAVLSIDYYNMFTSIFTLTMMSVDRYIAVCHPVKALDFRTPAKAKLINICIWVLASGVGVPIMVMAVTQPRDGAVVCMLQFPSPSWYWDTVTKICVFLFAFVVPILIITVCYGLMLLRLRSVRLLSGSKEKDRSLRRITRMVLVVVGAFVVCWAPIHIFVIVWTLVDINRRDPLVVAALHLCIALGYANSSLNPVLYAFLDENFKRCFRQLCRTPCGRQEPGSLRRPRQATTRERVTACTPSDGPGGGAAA

Row | SMILES | Ki (mu opioid receptor; [2]) | Ki (delta opioid receptor; [3]) | Ki (mu opioid receptor; [4]) | Ki (delta opioid receptor; [5]) | EC50 [1]
1 | O=C(N1C2CCC1CC(=C1c3ccccc3Oc3c(O)cccc31)C2)C(F)(F)F (single isomer, unassigned) [Cpd 5, 2,2,2-Trifluoro-1-[3-(4-hydroxy-xanthen-9-ylidene)-8-azabicyclo[3.2.1]oct-8-yl]-ethanone] | 5620 nM | 2110 nM | – | – | –
2 | O=C(N1C2CCC1CC(=C1c3ccccc3Oc3c(O)cccc31)C2)C(F)(F)F (single isomer, unassigned) [Cpd 6, 2,2,2-Trifluoro-1-[3-(4-hydroxy-xanthen-9-ylidene)-8-azabicyclo[3.2.1]oct-8-yl]-ethanone] | > 10000 nM | 8500 nM | – | – | –
3 | Oc1cccc2c1Oc1ccccc1C2=C1CC2CCC(C1)N2 (single isomer, unassigned) [Cpd 9, 9-(8-Azabicyclo[3.2.1]oct-3-ylidene)-9H-xanthen-4-ol] | 63.6 nM | 68.2 nM | – | – | –
4 | NC(=O)c1cccc2c1Oc1ccccc1C2=C1C[C@H]2CC[C@@H](C1)N2C(=O)C(F)(F)F (single isomer, unassigned) [Cpd 36, (+)-9-[8-(2,2,2-Trifluoroacetyl)-8-azabicyclo[3.2.1]oct-3-ylidene]-9H-xanthene-4-carboxylic acid amide] | – | – | > 10000 nM | 1790 nM | –
5 | NC(=O)c1cccc2c1Oc1ccccc1C2=C1C[C@H]2CC[C@@H](C1)N2C(=O)C(F)(F)F (single isomer, unassigned) [Cpd 38, (−)-9-[8-(2,2,2-Trifluoroacetyl)-8-azabicyclo[3.2.1]oct-3-ylidene]-9H-xanthene-4-carboxylic acid amide] | – | – | > 10000 nM | 6440 nM | –
6 | NC(=O)c1cccc2c1Oc1ccccc1C2=C1CC2CCC(C1)N2 (single isomer, unassigned) [Cpd 39, 9-(8-Azabicyclo[3.2.1]oct-3-ylidene)-9H-xanthene-4-carboxylic acid amide] | 96.4 nM | 31.9 nM | – | – | 1240 nM
7 | N=C(NO)c1cccc2c1Oc1ccccc1C2=C1CC2CCC(C1)N2 (single isomer, unassigned) [Cpd 42, 9-(8-Aza-bicyclo[3.2.1]oct-3-ylidene)-N-hydroxy-9H-xanthene-4-carboxamidine] | 56.5 nM | – | – | 237 nM | –
8 | N=C(NO)c1cccc2c1Oc1ccccc1C2=C1CC2CCC(C1)N2 (single isomer, unassigned) [Cpd 43, 9-(8-Aza-bicyclo[3.2.1]oct-3-ylidene)-N-hydroxy-9H-xanthene-4-carboxamidine] | – | – | > 10000 nM | > 10000 nM | –
9 | O=C(Nc1ccccc1)c1cccc2c1Oc1ccccc1C2=C1CC2CCC(C1)N2 (single isomer, unassigned) [Cpd 47, 9-(8-Azabicyclo[3.2.1]oct-3-ylidene)-9H-xanthene-4-carboxylic acid phenylamide] | 293 nM | 250 nM | – | – | –
10 | Oc1cccc2c1Oc1ccccc1C2=C1CC2CCC(C1)N2Cc1cccnc1 (single isomer, unassigned) [Cpd 49, 9-(8-Pyridin-3-ylmethyl-8-azabicyclo[3.2.1]oct-3-ylidene)-9H-xanthen-4-ol] | 443 nM | 62.6 nM | – | – | –
11 | CN1C2CCC1CC(=C1c3ccccc3Oc3c(O)cccc31)C2 (single isomer, unassigned) [Cpd 52, 9-(8-Methyl-8-azabicyclo[3.2.1]oct-3-ylidene)-9H-xanthen-4-ol] | 1320 nM | 323 nM | – | – | –
12 | O=C(NCc1ccccc1)c1cccc2c1Oc1ccccc1C2=C1CC2CCC(C1)N2 (single isomer, unassigned) [Cpd 53, 9-(8-Azabicyclo[3.2.1]oct-3-ylidene)-9H-xanthene-4-carboxylic acid benzylamide] | 2030 nM | 1130 nM | – | – | –
13 | O=C(NCCc1ccccc1)c1cccc2c1Oc1ccccc1C2=C1CC2CCC(C1)N2 (single isomer, unassigned) [Cpd 55, 9-(8-Azabicyclo[3.2.1]oct-3-ylidene)-9H-xanthene-4-carboxylic acid phenethylamide] | 200 nM | 100 nM | – | – | –
14 | Oc1cccc2c1Oc1ccccc1C2=C1CC2CCC(C1)N2Cc1ccoc1 (single isomer, unassigned) [Cpd 57, 9-(8-Furan-3-ylmethyl-8-azabicyclo[3.2.1]oct-3-ylidene)-9H-xanthen-4-ol] | 36.5 nM | 246 nM | – | – | –
15 | Oc1cccc2c1Oc1ccccc1C2=C1CC2CCC(C1)N2Cc1ccccn1 (single isomer, unassigned) [Cpd 59, 9-(8-Pyridin-2-ylmethyl-8-azabicyclo[3.2.1]oct-3-ylidene)-9H-xanthen-4-ol] | 0.39 nM | 0.07 nM | – | – | –
16 | Oc1cccc2c1Oc1ccccc1C2=C1CC2CCC(C1)N2Cc1ccccn1 (single isomer, unassigned) [Cpd 60, 9-(8-Pyridin-2-ylmethyl-8-azabicyclo[3.2.1]oct-3-ylidene)-9H-xanthen-4-ol] | 0.01 nM | 0.01 nM | – | – | –
17 | COc1cccc2c1Oc1ccccc1C2=C1CC2CCC(C1)N2 [Cpd 1] | – | – | 1790 nM | 3800 nM | –
18 | COC(=O)c1cccc2c1Oc1ccccc1C2=C1CC2CCC(C1)N2C(=O)C(F)(F)F [Cpd 7, 9-[8-(2,2,2-Trifluoroacetyl)-8-azabicyclo[3.2.1]oct-3-ylidene]-9H-xanthene-4-carboxylic acid methyl ester] | > 10000 nM | > 10000 nM | – | – | –
19 | CN(C)C(=O)c1cccc2c1Oc1ccccc1C2=C1CC2CCC(C1)N2 [Cpd 11, 9-(8-Azabicyclo[3.2.1]oct-3-ylidene)-9H-xanthene-4-carboxylic acid dimethylamide] | 471 nM | 3110 nM | – | – | –
20 | CN(C)CCNC(=O)c1cccc2c1Oc1ccccc1C2=C1CC2CCC(C1)N2 [Cpd 15, 9-(8-Azabicyclo[3.2.1]oct-3-ylidene)-9H-xanthene-4-carboxylic acid (2-dimethylaminoethyl)-amide] | 336 nM | 1420 nM | – | – | –
21 | CN1C2CCCC1CC(=C1c3ccccc3Oc3c(O)cccc31)C2 [Cpd 17, 9-(9-Methyl-9-azabicyclo[3.3.1]non-3-ylidene)-9H-xanthen-4-ol] | 221 nM | 132 nM | – | – | –
22 | CN1CCC(=C2c3ccccc3Oc3c(O)cccc32)CC1 [Cpd 18, 9-(1-Methyl-piperidin-4-ylidene)-9H-xanthen-4-ol] | 4610 nM | 330 nM | – | – | –
23 | Oc1cccc2c1Oc1ccccc1C2=C1CC2CCC(C1)N2Cc1csc2ccccc12 [Cpd 33] | – | – | 168 nM | 137 nM | –
24 | Oc1cccc2c1Oc1ccccc1C2=C1CC2CCC(C1)N2Cc1cccc2cnccc12 [Cpd 35] | – | – | 286 nM | 180 nM | –
25 | Clc1ccc(Nc2cccc3c2Oc2ccccc2C3=C2CC3CCC(C2)N3)cc1 [Cpd 61, [9-(8-Azabicyclo[3.2.1]oct-3-ylidene)-9H-xanthen-4-yl]-(4-chlorophenyl)-amine] | 3160 nM | 395 nM | – | – | –
26 | c1cncc(Nc2cccc3c2Oc2ccccc2C3=C2CC3CCC(C2)N3)c1 [Cpd 62, [9-(8-Azabicyclo[3.2.1]oct-3-ylidene)-9H-xanthen-4-yl]-pyridin-3-yl-amine] | 159 nM | 108 nM | – | – | –
27 | c1ccc(Nc2cccc3c2Oc2ccccc2C3=C2CC3CCC(C2)N3)cc1 [Cpd 64, [9-(8-Azabicyclo[3.2.1]oct-3-ylidene)-9H-xanthen-4-yl]-phenylamine] | 2420 nM | 862 nM | – | – | –

Source: patent US20090275610A1, “TRICYCLIC OPIOID MODULATORS” (priority 2005, published 2009)
